Assay: Quantification of garlic-derived metabolites in human urine after ingestion of 3 g raw garlic (SIDA, SAFE, HRGC-MS / HRGC-GC-MS)
Type: in vivo
Parameters: metabolite in urine related to creatinine: unit not given here
Settings: for highest detected concentration of the sample series: same bulb
Source text: Human urine samples were obtained from 18 volunteers (age 22–38 years, mean 27 years; 11 females, 7 males); thereby, one volunteer conducted the whole experimental series twice. At the time of examination, volunteers reported no known illness that might have potentially influenced the metabolism or the excretion of urine. The test persons were instructed to avoid foods that were rich in sulfur-containing substances at the testing day as well as 2 days preceding the testing day, namely garlic, onion, wild garlic, chives, cabbage, and leek, and were only allowed to consume the garlic sample provided in the course of the experiments. Additionally, subjects were asked to keep records of the food (including food supplements) and beverages they consumed during these 3 testing days. Generally, the overall panelists' requirements were in accordance with our previous studies ([5], [16]).
On the sampling day, the outer garlic cloves of a whole garlic bulb were peeled and cut into ~3 mm cubes by using a garlic cutter (Genius GmbH, Limburg/Lahn, Germany). Subsequently these cubes were thoroughly mixed and aliquoted into 3 g portions. Three to four test persons conducted the experiment at the same day. Each test person was asked to ingest a garlic portion of 3 g. In total, eight consecutive urine samples were provided by each test person, comprising one whole urine set. The samples were collected in sterile brown glass bottles, with sampling times as follows: one sample was provided directly prior to garlic consumption. The series of the second to eighth sample was then obtained at about 0.5, 1, 2, 4, 6, 8, and 24 h after garlic consumption, respectively. Between the first urine sample (prior to garlic consumption) and the seventh urine sample (8 h after garlic consumption) test persons only spent urine at the specific time points mentioned before. Another sample was provided at the next morning (24 h after garlic consumption). Between the samples provided 8 and 24 h after garlic consumption no urine was collected. All samples were immediately placed into a −80°C freezer and were kept frozen until further analysis.
The samples of each set were termed according to their sampling time. The following list provides the time intervals that are related to the respective sample name: • - pre: before garlic consumption • - 0.5 h post: 0.4–0.8 h after garlic consumption • - 1 h post: 0.9–1.3 h after garlic consumption • - 2 h post: 1.8 h−2.2 h after garlic consumption • - 4 h post: 3.8–4.4 h after garlic consumption • - 6 h post: 5.8–6.4 h after garlic consumption • - 8 h post: 7.8–8.4 h after garlic consumption • - 24 h post: 23.8–25.6 h after garlic consumption
A creatinine kit (Labor+Technik Eberhard Lehmann GmbH, Berlin, Germany) was used to determine the creatinine content in each urine sample. The determination principle of this kit is based on the reaction of creatinine with picric acid under basic conditions (Jaffé reaction). The formed complex was detected photometrically at a wavelength of 492 nm.
For quantification purposes, the deuterated standards ^2H3-AMS, ^2H3-AMSO, and ^2H3-AMSO2 were added to the sample and stirred for 10 min. Subsequently, DCM was added in a ratio of 1:2 (DCM/human urine; v/v) and this solution was stirred for further 30 min at room temperature. To isolate the volatile fraction from the urine samples we then applied SAFE-distillation ([17]), thereby distilling the respective samples at 50°C. After completion of the distillation process, 10 mL of DCM were applied in each case to rinse the SAFE apparatus and to ensure complete transition of the volatile compounds. This process was repeated with another 10 mL of DCM. After thawing, the obtained aqueous distillate phase was extracted three times with 25 mL DCM. The organic phases were combined, dried over anhydrous Na2SO4 and concentrated to a total volume of 100 μL by means of Vigreux distillation and subsequent micro-distillation at 50°C. […]

[1] = U XII, 2 h post (1.85 h), 3 g raw garlic
[2] = U XII, 4 h post (3.80 h), 3 g raw garlic
[3] = U XII, 6 h post (5.82 h), 3 g raw garlic
[4] = U XII, 8 h post (7.82 h), 3 g raw garlic
[5] = U XII, 24 h post (23.92 h), 3 g raw garlic
[6] = U XII, pre (-0.08 h), 3 g raw garlic
[7] = U XIII, 0.5 h post (0.42 h), 3 g raw garlic
[8] = U XIII, 1 h post (0.92 h), 3 g raw garlic
[9] = U XIII, 2 h post (1.92 h), 3 g raw garlic
[10] = U XIII, 4 h post (3.92 h), 3 g raw garlic
[11] = U XIII, 6 h post (5.92 h), 3 g raw garlic
[12] = U XIII, 8 h post (7.92 h), 3 g raw garlic
[13] = U XIII, 24 h post (23.92 h), 3 g raw garlic
[14] = U XIII, pre (-0.08 h), 3 g raw garlic

C=CCS(C)(=O)=O [AMSO2, allyl methyl sulfone]
metabolite concentration in urine [1]: 48.2 µg/kg
metabolite concentration in urine, creatinine-normalized [1]: 72.4 µg/mmol creatinine
metabolite concentration in urine [2]: 76.1 µg/kg
metabolite concentration in urine, creatinine-normalized [2]: 28.5 µg/mmol creatinine
metabolite concentration in urine [3]: 82.8 µg/kg
metabolite concentration in urine, creatinine-normalized [3]: 14.3 µg/mmol creatinine
metabolite concentration in urine [4]: 61.4 µg/kg
metabolite concentration in urine, creatinine-normalized [4]: 21.6 µg/mmol creatinine
metabolite concentration in urine [5]: 6.6 µg/kg
metabolite concentration in urine, creatinine-normalized [5]: 0.4 µg/mmol creatinine
metabolite concentration in urine [6]: 2.0 µg/kg
metabolite concentration in urine, creatinine-normalized [6]: 0.1 µg/mmol creatinine
metabolite concentration in urine [7]: 19.8 µg/kg
metabolite concentration in urine, creatinine-normalized [7]: 12.4 µg/mmol creatinine
metabolite concentration in urine [8]: 145.0 µg/kg
metabolite concentration in urine, creatinine-normalized [8]: 58.5 µg/mmol creatinine
metabolite concentration in urine [9]: 182.5 µg/kg
metabolite concentration in urine, creatinine-normalized [9]: 52.4 µg/mmol creatinine
metabolite concentration in urine [10]: 174.3 µg/kg
metabolite concentration in urine, creatinine-normalized [10]: 36.8 µg/mmol creatinine
metabolite concentration in urine [11]: 105.0 µg/kg
metabolite concentration in urine, creatinine-normalized [11]: 9.0 µg/mmol creatinine
metabolite concentration in urine [12]: 67.5 µg/kg
metabolite concentration in urine, creatinine-normalized [12]: 7.7 µg/mmol creatinine
metabolite concentration in urine [13]: 8.5 µg/kg
metabolite concentration in urine, creatinine-normalized [13]: 1.0 µg/mmol creatinine
metabolite concentration in urine [14]: < LOD^3
metabolite concentration in urine, creatinine-normalized [14]: < LOD^3
variation factor of the concentration maxima between test persons (Urine XIII-XVI, highest vs lowest maximum): 2.2
highest detected concentration of the sample series (Urine XIII, 3 g raw garlic): 58.5 μg/mmol creatinine
highest detected concentration of the sample series (Urine XIV (AMS: printed Urine UIV), 3 g raw garlic): 60.1 μg/mmol creatinine
highest detected concentration of the sample series (Urine XV, 3 g raw garlic): 83.1 μg/mmol creatinine
time of highest concentration in urine after garlic consumption (Urine XVI, 3 g raw garlic): 4 h
highest detected concentration of the sample series (Urine XVI, 3 g raw garlic): 37.19 μg/mmol creatinine
metabolite in urine related to creatinine (urine set U XIX, 0.5 h post (0.50 h), garlic 3.1133 g): 4.4
metabolite in urine related to creatinine (urine set U XIX, 1 h post (1.00 h), garlic 3.1133 g): 41.2
metabolite in urine related to creatinine (urine set U XIX, 2 h post (2.00 h), garlic 3.1133 g): 77.6
metabolite in urine related to creatinine (urine set U XIX, 4 h post (4.00 h), garlic 3.1133 g): 41.4
metabolite in urine related to creatinine (urine set U XIX, 6 h post (6.20 h), garlic 3.1133 g): 30.7
metabolite in urine related to creatinine (urine set U XIX, 8 h post (7.93 h), garlic 3.1133 g): 24.3
metabolite in urine related to creatinine (urine set U XIX, 24 h post (23.98 h), garlic 3.1133 g): 1.8
metabolite in urine related to creatinine (urine set U XIX, pre (-0.07 h), garlic 3.1133 g): < LOD^3
metabolite in urine related to creatinine (urine set U XVII, 0.5 h post (0.58 h), garlic 3.1559 g): 0.3
metabolite in urine related to creatinine (urine set U XVII, 1 h post (1.00 h), garlic 3.1559 g): 4.7
metabolite in urine related to creatinine (urine set U XVII, 2 h post (2.17 h), garlic 3.1559 g): 32.1
metabolite in urine related to creatinine (urine set U XVII, 4 h post (4.00 h), garlic 3.1559 g): 27.6
metabolite in urine related to creatinine (urine set U XVII, 6 h post (6.08 h), garlic 3.1559 g): 3.0
metabolite in urine related to creatinine (urine set U XVII, 8 h post (8.00 h), garlic 3.1559 g): 5.1
metabolite in urine related to creatinine (urine set U XVII, 24 h post (23.92 h), garlic 3.1559 g): 0.7
metabolite in urine related to creatinine (urine set U XVII, pre (-0.08 h), garlic 3.1559 g): traces^3
metabolite in urine related to creatinine (urine set U XVIII, 0.5 h post (0.63 h), garlic 3.1981 g): 14.7
metabolite in urine related to creatinine (urine set U XVIII, 1 h post (1.05 h), garlic 3.1981 g): 40.5
metabolite in urine related to creatinine (urine set U XVIII, 2 h post (2.00 h), garlic 3.1981 g): 68.1
metabolite in urine related to creatinine (urine set U XVIII, 4 h post (3.97 h), garlic 3.1981 g): 56.4
metabolite in urine related to creatinine (urine set U XVIII, 6 h post (5.97 h), garlic 3.1981 g): 26.3
metabolite in urine related to creatinine (urine set U XVIII, 8 h post (8.30 h), garlic 3.1981 g): 42.2
metabolite in urine related to creatinine (urine set U XVIII, 24 h post (24.13 h), garlic 3.1981 g): 1.3
metabolite in urine related to creatinine (urine set U XVIII, pre (-0.08 h), garlic 3.1981 g): < LOD^3

From PMC6499206, “Quantification of Volatile Metabolites Derived From Garlic (Allium sativum) in Human Urine” (Frontiers in Nutrition, 2019)
